Four compounds from article PMC9923211, “Functional characterization and key residues engineering of a regiopromiscuity O-methyltransferase involved in benzylisoquinoline alkaloid biosynthesis in Nelumbo nucifera” (Horticulture Research, 2022) can be followed below.

Holding throughout (assay): UPLC-MS methylation assay, Michaelis-Menten fit
One data set has as its target T1, NnOMT6 (Nelumbo nucifera, UniProt A0A1U7Z1M5).
T1 construct: gene LOC104585771
Format: biochemical. The settings on record: 50 mM potassium phosphate pH 8.0, 37°C, 30 min.

Data set [1] relates to COc1c(O)cc2c3c1-c1ccccc1C[C@@H]3NCC2. Format: biochemical, Nelumbo nucifera. The settings on record: SAM as methyl donor, 50 mM potassium phosphate pH 8.0, 37°C, 30 min.
The test system of data set [2] is COc1cc2c(cc1O)[C@@H]1Cc3ccc(OC)c(O)c3CN1CC2. It is filed as biochemical, Nelumbo nucifera. The note with it: SAM as methyl donor, 50 mM potassium phosphate pH 8.0, 37°C, 30 min.

For orientation: Km means the concentration of substrate that gives half-maximal velocity. Take `C[S+](CC[C@H](N)C(=O)O)C[C@H]1O[C@@H](n2cnc3c(N)ncnc32)[C@H](O)[C@@H]1O` (some centres unmarked) [SAM]: the Km at NnOMT6 (200 μM caffeic acid as acceptor) came to 163 µM.

In the case of `Oc1ccc(C[C@@H]2NCCc3cc(O)c(O)cc32)cc1` [compound 1, (S)-norcoclaurine], the Km on NnOMT6 (200 μM SAM) was determined as 282 µM.

`O=C(O)/C=C/c1ccc(O)c(O)c1` [compound 16, caffeic acid]: the Km at NnOMT6 (200 μM SAM) is 216 µM.

With NnOMT6 (Nelumbo nucifera; N323A), the figures for the Km in data set [1] and in data set [2] were 132.77 µM and 86.35 µM, respectively.
